Data from the NIST ThermoML archive (doi:10.1021/je100832h).
± gives the expanded uncertainty stated by the source.

How the values were obtained:
[1] = xn = mol fraction of the nth substance listed; conditions: 101.32 kPa, Liquid, Vibrating tube method
[2] = excess molar enthalpy (molar enthalpy of mixing); xn = mol fraction of the nth substance listed; conditions: 101 kPa, Liquid, Calvet calorimetry

## CCCCCCCC [octane] + CCOC(C)=O
[1]; 291.15 K, x2 = 0
  mass density: 704.13 ± 0.55 kg/m3
[1]; 291.15 K, x2 = 0.0296
  mass density: 707.15 ± 0.68 kg/m3
[1]; 291.15 K, x2 = 0.0628
  mass density: 710.48 ± 0.7 kg/m3
[1]; 291.15 K, x2 = 0.1163
  mass density: 716.36 ± 0.72 kg/m3
[1]; 291.15 K, x2 = 0.1605
  mass density: 721.46 ± 0.74 kg/m3
[1]; 291.15 K, x2 = 0.2056
  mass density: 727.01 ± 0.77 kg/m3
[1]; 291.15 K, x2 = 0.2901
  mass density: 738.23 ± 0.8 kg/m3
[1]; 291.15 K, x2 = 0.3723
  mass density: 750.35 ± 0.85 kg/m3
[1]; 291.15 K, x2 = 0.4427
  mass density: 761.76 ± 0.9 kg/m3
[1]; 291.15 K, x2 = 0.5131
  mass density: 774.24 ± 0.95 kg/m3
[1]; 291.15 K, x2 = 0.5744
  mass density: 785.94 ± 1 kg/m3
[1]; 291.15 K, x2 = 0.6332
  mass density: 798.14 ± 1.1 kg/m3
[1]; 291.15 K, x2 = 0.6886
  mass density: 810.54 ± 1.1 kg/m3
[1]; 291.15 K, x2 = 0.7414
  mass density: 823.25 ± 1.2 kg/m3
[1]; 291.15 K, x2 = 0.7945
  mass density: 836.98 ± 1.3 kg/m3
[1]; 291.15 K, x2 = 0.84
  mass density: 849.83 ± 1.4 kg/m3
[1]; 291.15 K, x2 = 0.895
  mass density: 866.53 ± 1.4 kg/m3
[1]; 291.15 K, x2 = 0.9304
  mass density: 878.05 ± 1.5 kg/m3
[1]; 291.15 K, x2 = 0.9523
  mass density: 885.46 ± 1.6 kg/m3
[1]; 298.15 K, x2 = 0
  mass density: 698.6 ± 0.54 kg/m3
[1]; 298.15 K, x2 = 0.0485
  mass density: 703.3 ± 0.68 kg/m3
[1]; 298.15 K, x2 = 0.0998
  mass density: 708.8 ± 0.71 kg/m3
[1]; 298.15 K, x2 = 0.1711
  mass density: 716.9 ± 0.74 kg/m3
[1]; 298.15 K, x2 = 0.2518
  mass density: 727.02 ± 0.77 kg/m3
[1]; 298.15 K, x2 = 0.3198
  mass density: 736.29 ± 0.81 kg/m3
[1]; 298.15 K, x2 = 0.3814
  mass density: 745.42 ± 0.85 kg/m3
[1]; 298.15 K, x2 = 0.4622
  mass density: 758.48 ± 0.88 kg/m3
[1]; 298.15 K, x2 = 0.4977
  mass density: 764.69 ± 0.94 kg/m3
[1]; 298.15 K, x2 = 0.5598
  mass density: 776.23 ± 1 kg/m3
[1]; 298.15 K, x2 = 0.6548
  mass density: 795.8 ± 1.1 kg/m3
[1]; 298.15 K, x2 = 0.6729
  mass density: 799.8 ± 1.1 kg/m3
[1]; 298.15 K, x2 = 0.6865
  mass density: 802.9 ± 1.1 kg/m3
[1]; 298.15 K, x2 = 0.755
  mass density: 819.2 ± 1.2 kg/m3
[1]; 298.15 K, x2 = 0.7913
  mass density: 828.6 ± 1.2 kg/m3
[1]; 298.15 K, x2 = 0.8335
  mass density: 840.2 ± 1.3 kg/m3
[1]; 298.15 K, x2 = 0.8686
  mass density: 850.5 ± 1.4 kg/m3
[1]; 298.15 K, x2 = 0.9039
  mass density: 861.4 ± 1.5 kg/m3
[1]; 298.15 K, x2 = 0.9578
  mass density: 879.3 ± 1.5 kg/m3
[1]; 318.15 K, x2 = 0
  mass density: 682.16 ± 0.53 kg/m3
[1]; 318.15 K, x2 = 0.034
  mass density: 685.37 ± 0.66 kg/m3
[1]; 318.15 K, x2 = 0.108
  mass density: 692.6 ± 0.68 kg/m3
[1]; 318.15 K, x2 = 0.1961
  mass density: 702.19 ± 0.72 kg/m3
[1]; 318.15 K, x2 = 0.2859
  mass density: 713.24 ± 0.76 kg/m3
[1]; 318.15 K, x2 = 0.3635
  mass density: 723.8 ± 0.8 kg/m3
[1]; 318.15 K, x2 = 0.4203
  mass density: 732.23 ± 0.84 kg/m3
[1]; 318.15 K, x2 = 0.4875
  mass density: 743.04 ± 0.89 kg/m3
[1]; 318.15 K, x2 = 0.5678
  mass density: 757.24 ± 0.93 kg/m3
[1]; 318.15 K, x2 = 0.6088
  mass density: 765.1 ± 1 kg/m3
[1]; 318.15 K, x2 = 0.6633
  mass density: 776.23 ± 1 kg/m3
[1]; 318.15 K, x2 = 0.7123
  mass density: 786.92 ± 1.1 kg/m3
[1]; 318.15 K, x2 = 0.764
  mass density: 799.14 ± 1.2 kg/m3
[1]; 318.15 K, x2 = 0.8086
  mass density: 810.54 ± 1.2 kg/m3
[1]; 318.15 K, x2 = 0.8487
  mass density: 821.51 ± 1.3 kg/m3
[1]; 318.15 K, x2 = 0.8943
  mass density: 834.53 ± 1.4 kg/m3
[1]; 318.15 K, x2 = 0.932
  mass density: 846.34 ± 1.4 kg/m3
[1]; 318.15 K, x2 = 0.9762
  mass density: 860.93 ± 1.5 kg/m3
[1]; 328.15 K, x2 = 0
  mass density: 674.15 ± 0.53 kg/m3
[1]; 328.15 K, x2 = 0.0441
  mass density: 678 ± 0.65 kg/m3
[1]; 328.15 K, x2 = 0.1138
  mass density: 684.7 ± 0.67 kg/m3
[1]; 328.15 K, x2 = 0.2084
  mass density: 694.85 ± 0.7 kg/m3
[1]; 328.15 K, x2 = 0.2915
  mass density: 704.8 ± 0.75 kg/m3
[1]; 328.15 K, x2 = 0.3741
  mass density: 715.9 ± 0.79 kg/m3
[1]; 328.15 K, x2 = 0.4415
  mass density: 725.91 ± 0.84 kg/m3
[1]; 328.15 K, x2 = 0.5234
  mass density: 739.31 ± 0.89 kg/m3
[1]; 328.15 K, x2 = 0.5735
  mass density: 748.22 ± 0.94 kg/m3
[1]; 328.15 K, x2 = 0.6354
  mass density: 760.07 ± 0.99 kg/m3
[1]; 328.15 K, x2 = 0.6861
  mass density: 770.65 ± 1.1 kg/m3
[1]; 328.15 K, x2 = 0.7435
  mass density: 783.45 ± 1.1 kg/m3
[1]; 328.15 K, x2 = 0.7958
  mass density: 796.07 ± 1.2 kg/m3
[1]; 328.15 K, x2 = 0.8407
  mass density: 807.86 ± 1.2 kg/m3
[1]; 328.15 K, x2 = 0.8822
  mass density: 819.28 ± 1.3 kg/m3
[1]; 328.15 K, x2 = 0.927
  mass density: 832.83 ± 1.4 kg/m3
[1]; 328.15 K, x2 = 0.9737
  mass density: 848.01 ± 1.5 kg/m3
[2]; 291.15 K, x2 = 0.0994
  excess molar enthalpy: 0.146 ± 0.00311 kcal/mol
[2]; 291.15 K, x2 = 0.1715
  excess molar enthalpy: 0.23 ± 0.00502 kcal/mol
[2]; 291.15 K, x2 = 0.254
  excess molar enthalpy: 0.303 ± 0.00645 kcal/mol
[2]; 291.15 K, x2 = 0.3369
  excess molar enthalpy: 0.355 ± 0.00765 kcal/mol
[2]; 291.15 K, x2 = 0.4081
  excess molar enthalpy: 0.383 ± 0.00813 kcal/mol
[2]; 291.15 K, x2 = 0.474
  excess molar enthalpy: 0.399 ± 0.0086 kcal/mol
[2]; 291.15 K, x2 = 0.5317
  excess molar enthalpy: 0.4 ± 0.0086 kcal/mol
[2]; 291.15 K, x2 = 0.5698
  excess molar enthalpy: 0.392 ± 0.00837 kcal/mol
[2]; 291.15 K, x2 = 0.5955
  excess molar enthalpy: 0.386 ± 0.00837 kcal/mol
[2]; 291.15 K, x2 = 0.6441
  excess molar enthalpy: 0.371 ± 0.00789 kcal/mol
[2]; 291.15 K, x2 = 0.6953
  excess molar enthalpy: 0.344 ± 0.00741 kcal/mol
[2]; 291.15 K, x2 = 0.7435
  excess molar enthalpy: 0.313 ± 0.00669 kcal/mol
[2]; 291.15 K, x2 = 0.7996
  excess molar enthalpy: 0.272 ± 0.00574 kcal/mol
[2]; 291.15 K, x2 = 0.853
  excess molar enthalpy: 0.226 ± 0.00478 kcal/mol
[2]; 291.15 K, x2 = 0.8967
  excess molar enthalpy: 0.176 ± 0.00382 kcal/mol
[2]; 291.15 K, x2 = 0.9435
  excess molar enthalpy: 0.118 ± 0.00263 kcal/mol
[2]; 291.15 K, x2 = 0.981
  excess molar enthalpy: 0.0581 ± 0.00143 kcal/mol
[2]; 298.15 K, x2 = 0.0774
  excess molar enthalpy: 0.102 ± 0.00215 kcal/mol
[2]; 298.15 K, x2 = 0.1517
  excess molar enthalpy: 0.178 ± 0.00382 kcal/mol
[2]; 298.15 K, x2 = 0.2198
  excess molar enthalpy: 0.243 ± 0.00526 kcal/mol
[2]; 298.15 K, x2 = 0.2861
  excess molar enthalpy: 0.293 ± 0.00621 kcal/mol
[2]; 298.15 K, x2 = 0.3374
  excess molar enthalpy: 0.326 ± 0.00693 kcal/mol
[2]; 298.15 K, x2 = 0.3769
  excess molar enthalpy: 0.352 ± 0.00765 kcal/mol
[2]; 298.15 K, x2 = 0.4335
  excess molar enthalpy: 0.377 ± 0.00813 kcal/mol
[2]; 298.15 K, x2 = 0.4856
  excess molar enthalpy: 0.384 ± 0.00813 kcal/mol
[2]; 298.15 K, x2 = 0.5281
  excess molar enthalpy: 0.383 ± 0.00813 kcal/mol
[2]; 298.15 K, x2 = 0.5773
  excess molar enthalpy: 0.38 ± 0.00813 kcal/mol
[2]; 298.15 K, x2 = 0.6255
  excess molar enthalpy: 0.371 ± 0.00789 kcal/mol
[2]; 298.15 K, x2 = 0.6736
  excess molar enthalpy: 0.351 ± 0.00741 kcal/mol
[2]; 298.15 K, x2 = 0.7261
  excess molar enthalpy: 0.325 ± 0.00693 kcal/mol
[2]; 298.15 K, x2 = 0.7729
  excess molar enthalpy: 0.292 ± 0.00621 kcal/mol
[2]; 298.15 K, x2 = 0.8276
  excess molar enthalpy: 0.246 ± 0.00526 kcal/mol
[2]; 298.15 K, x2 = 0.8796
  excess molar enthalpy: 0.191 ± 0.00406 kcal/mol
[2]; 298.15 K, x2 = 0.9202
  excess molar enthalpy: 0.129 ± 0.00287 kcal/mol
[2]; 298.15 K, x2 = 0.9644
  excess molar enthalpy: 0.0648 ± 0.00143 kcal/mol
[2]; 318.15 K, x2 = 0.0832
  excess molar enthalpy: 0.111 ± 0.00239 kcal/mol
[2]; 318.15 K, x2 = 0.1591
  excess molar enthalpy: 0.195 ± 0.0043 kcal/mol
[2]; 318.15 K, x2 = 0.2322
  excess molar enthalpy: 0.267 ± 0.00574 kcal/mol
[2]; 318.15 K, x2 = 0.3009
  excess molar enthalpy: 0.319 ± 0.00693 kcal/mol
[2]; 318.15 K, x2 = 0.3637
  excess molar enthalpy: 0.353 ± 0.00765 kcal/mol
[2]; 318.15 K, x2 = 0.4184
  excess molar enthalpy: 0.374 ± 0.00789 kcal/mol
[2]; 318.15 K, x2 = 0.4655
  excess molar enthalpy: 0.384 ± 0.00813 kcal/mol
[2]; 318.15 K, x2 = 0.5112
  excess molar enthalpy: 0.388 ± 0.00837 kcal/mol
[2]; 318.15 K, x2 = 0.5525
  excess molar enthalpy: 0.386 ± 0.00813 kcal/mol
[2]; 318.15 K, x2 = 0.5886
  excess molar enthalpy: 0.382 ± 0.00813 kcal/mol
[2]; 318.15 K, x2 = 0.6324
  excess molar enthalpy: 0.371 ± 0.00789 kcal/mol
[2]; 318.15 K, x2 = 0.6807
  excess molar enthalpy: 0.355 ± 0.00765 kcal/mol
[2]; 318.15 K, x2 = 0.7307
  excess molar enthalpy: 0.328 ± 0.00693 kcal/mol
[2]; 318.15 K, x2 = 0.7788
  excess molar enthalpy: 0.293 ± 0.00621 kcal/mol
[2]; 318.15 K, x2 = 0.8291
  excess molar enthalpy: 0.248 ± 0.00526 kcal/mol
[2]; 318.15 K, x2 = 0.8801
  excess molar enthalpy: 0.192 ± 0.00406 kcal/mol
[2]; 318.15 K, x2 = 0.9259
  excess molar enthalpy: 0.13 ± 0.00287 kcal/mol
[2]; 318.15 K, x2 = 0.9646
  excess molar enthalpy: 0.0667 ± 0.00167 kcal/mol
